From US20180263996A1, “ARYL SULTAM DERIVATIVES AS RORc MODULATORS” (Genentech, Inc., priority 2015, published 2018) come the findings set out here.

pIC50: −log10 of the molar value.

The experiment addresses T1, RORc (Homo sapiens, UniProt P51449).
T1 construct: host or cells: E. coli
T1 sequence (P51449 269-508 limits assumed): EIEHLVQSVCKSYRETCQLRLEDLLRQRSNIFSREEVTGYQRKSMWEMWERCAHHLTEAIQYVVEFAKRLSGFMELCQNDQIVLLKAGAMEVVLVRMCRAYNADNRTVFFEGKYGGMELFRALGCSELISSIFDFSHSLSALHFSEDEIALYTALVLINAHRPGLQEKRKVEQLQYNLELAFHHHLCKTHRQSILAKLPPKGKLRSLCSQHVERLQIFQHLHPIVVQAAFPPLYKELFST
Kind of experiment: In Vitro RORc Ligand Binding Assay. Particulars: IC50 values for RORc. As to the method: This assay was used to determine a compound's potency in inhibiting activity of RORc by determining, Kiapp, IC50, or percent inhibition values.
On day of the assay, 100 uL of 0.05% CHAPS (in deionized H2O) was added to all wells of the GFB Unifilter plate and allowed soak for 1 h. A wash buffer of 50 mM HEPES (pH 7.4), 150 mM NaCl, and 5 mM MgCl2 was prepared to wash the filter plate. To prepare an assay buffer, BSA was added to the wash buffer to reach 0.01% and DTT was added to reach 1 mM.
The 20× compound stocks were diluted in DMSO with Assay Buffer 4-fold to reach 5× the final test concentration in 25% DMSO (10 uL compound+30 uL Assay Buffer). Solutions were mixed by aspiration several times with a pipette set on 50 uL volume.
For two point screening, 10 mM stock compound solutions were diluted in DMSO to obtain 200 uM (20× the high test concentration) and then diluted 10-fold further to reach 20 uM (20× the low test concentration). The 20× stocks were diluted 4-fold with Assay Buffer (10 uL compound+30 uL Assay Buffer) to reach 5× the test concentrations (50 uM and 5 uM) and 10 uL were added to two assay plates for the duplicate wells. With each concentration tested on 2 plates, each set of 80 compounds used 4 assay plates (1 uM and 10 uM, with n=2).
For 25-hydroxycholesterol in 25% DMSO/75% Assay Buffer; 10 uL per well was used for NSB samples. Wells for Total Binding and No Receptor sample determination contained 10 uL of 25% DMSO/75% Assay Buffer per well.
Add 20 uL to all wells to reach 6 nM final concentration in the assay.
Stock receptor solution was diluted in assay buffer to obtain 1.5 ug/mL in Assay Buffer. 20 uL was added to all wells. For No Receptor samples, 20 uL Assay Buffer was substituted for receptor solution.
Assay plates were 96-well polypropylene V-bottom plates. […] 10 uL of 25% DMSO/75% Assay Buffer was added to Total Binding or No Receptor wells. 10 uL of 5 uM 25-hydroxycholesterol in 25% DMSO/75% Assay Buffer was added to NSB wells. […] 20 uL of 1.5 ug/mL RORc receptor was added to wells (or 40 uL Assay Buffer to No R wells). Following addition to the wells, the plates were incubated 3 h at 25° C.
Using a Packard Filtermate Harvester, the filter plate were washed 4 times following transfer of the incubated samples. Plates were dry-filtered completely (2 h at 50° C. or overnight at room temperature). 50 uL Microscint 0 was added to all wells and read on Topcount protocol Inverted.
Final concentrations were as follows: 50 mM HEPES buffer (pH 7.4); 150 mM NaCl; 1 mM DTT; 5 mM MgCl2; 0.01% BSA; 5% DMSO; 0.6 ug/mL RORc receptor; 6 nM 25-[^3H]hydroxycholesterol. For NSB wells, 1 uM 25-hydroxycholesterol was also present.
As usually defined, the pIC50 is −log10 of the IC50, conventionally taken in molar units. As to `Cc1nnc(C(=O)NC(C)c2cc(F)c(CN3[C@@H](C)CC[C@H](c4ccccc4)S3(=O)=O)cc2F)o1` (stereo in doubt) [Compound 73, N-[1-[2,5-difluoro-4-[[(3S,6R)-3-methyl-1,1-dioxo-6-phenyl-thiazinan-2-yl]methyl]phenyl]ethyl]-5-methyl-1,3,4-oxadiazole-2-carboxamide], the pIC50 is 8.03. The value for `COc1cc(C(=O)NC(C)c2cc(F)c(CN3[C@@H](C)CC[C@H](c4ccccc4)S3(=O)=O)cc2F)on1` (stereo in doubt) [Compound 74, N-[1-[2,5-difluoro-4-[[(3S,6R)-3-methyl-1,1-dioxo-6-phenyl-thiazinan-2-yl]methyl]phenyl]ethyl]-3-methoxy-isoxazole-5-carboxamide] was 8.14; that for `CC(NC(=O)c1cnco1)c1cc(F)c(CN2[C@@H](C)CC[C@H](c3ccccc3)S2(=O)=O)cc1F` (stereo in doubt) [Compound 75, N-[1-[2,5-difluoro-4-[[(3S,6R)-3-methyl-1,1-dioxo-6-phenyl-thiazinan-2-yl]methyl]phenyl]ethyl]oxazole-5-carboxamide] was 7.12; that for `CC(NC(=O)c1csc(N)n1)c1cc(F)c(CN2[C@@H](C)CC[C@H](c3ccccc3)S2(=O)=O)cc1F` (stereo in doubt) [Compound 78, 2-amino-N-[1-[2,5-difluoro-4-[[(3S,6R)-3-methyl-1,1-dioxo-6-phenyl-thiazinan-2-yl]methyl]phenyl]ethyl]thiazole-4-carboxamide] was 6.67. Regarding `CC(NC(=O)c1csnn1)c1cc(F)c(CN2[C@@H](C)CC[C@H](c3ccccc3)S2(=O)=O)cc1F` (stereo in doubt) [Compound 79, N-[1-[2,5-difluoro-4-[[(3S,6R)-3-methyl-1,1-dioxo-6-phenyl-thiazinan-2-yl]methyl]phenyl]ethyl]thiadiazole-4-carboxamide], the negative logarithm of the IC50 (pIC50) is 8.52. Compound `C[C@H]1CC[C@H](c2ccccc2)S(=O)(=O)N1Cc1ccc(C2(COCC3COC3)CCOCC2)cc1F` [Compound 3, (3S,6R)-2-[[2-fluoro-4-[4-(oxetan-3-ylmethoxymethyl)tetrahydropyran-4-yl]phenyl]methyl]-3-methyl-6-phenyl-thiazinane 1,1-dioxide] showed a pIC50 of 7.35. On to `C[C@H]1CC[C@H](c2ccccc2)S(=O)(=O)N1Cc1cc(F)c([C@H](CC2COC2)C(N)=O)cc1F` [Compound 4, (2S)-2-[2,5-difluoro-4-[[(3S,6R)-3-methyl-1,1-dioxo-6-phenyl-thiazinan-2-yl]methyl]phenyl]-3-(oxetan-3-yl)propanamide], for which the pIC50 was 7.50. The pIC50 values of the last two compounds are within 0.2 log units of each other. Next, `C[C@H]1CC[C@H](c2ccccc2)S(=O)(=O)N1Cc1cc(F)c([C@@H](CC2COC2)C(N)=O)cc1F` [Compound 5, (2R)-2-[2,5-difluoro-4-[[(3S,6R)-3-methyl-1,1-dioxo-6-phenyl-thiazinan-2-yl]methyl]phenyl]-3-(oxetan-3-yl)propanamide]: 7.51; `C[C@H]1CC[C@H](c2ccccc2)S(=O)(=O)N1Cc1cc(F)c([C@H](OC2CCOCC2)C(N)=O)cc1F` [Compound 7, (2S)-2-[2,5-difluoro-4-[[(3S,6R)-3-methyl-1,1-dioxo-6-phenyl-thiazinan-2-yl]methyl]phenyl]-2-tetrahydropyran-4-yloxy-acetamide]: 7.19. The value for `C[C@H]1CC[C@H](c2ccccc2)S(=O)(=O)N1Cc1cc(F)c([C@@H](OC2COC2)C(N)=O)cc1F` [Compound 8, (2R)-2-[2,5-difluoro-4-[[(3S,6R)-3-methyl-1,1-dioxo-6-phenyl-thiazinan-2-yl]methyl]phenyl]-2-(oxetan-3-yloxy)acetamide] was 7.51; that for `C[C@H]1CC[C@H](c2ccccc2)S(=O)(=O)N1Cc1cc(F)c([C@H](OC2COC2)C(N)=O)cc1F` [Compound 9, (2S)-2-[2,5-difluoro-4-[[(3S,6R)-3-methyl-1,1-dioxo-6-phenyl-thiazinan-2-yl]methyl]phenyl]-2-(oxetan-3-yloxy)acetamide] was 7.46; that for `C[C@H]1CC[C@H](c2ccccc2)S(=O)(=O)N1Cc1cc(F)c([C@@](C)(CO)C(N)=O)cc1F` [Compound 10, (2S)-2-[2,5-difluoro-4-[[(3S,6R)-3-methyl-1,1-dioxo-6-phenyl-thiazinan-2-yl]methyl]phenyl]-3-hydroxy-2-methyl-propanamide] was 7.45. The value for `C[C@H]1CC[C@H](c2ccccc2)S(=O)(=O)N1Cc1cc(F)c([C@](C)(CO)C(N)=O)cc1F` [Compound 11, (2R)-2-[2,5-difluoro-4-[[(3S,6R)-3-methyl-1,1-dioxo-6-phenyl-thiazinan-2-yl]methyl]phenyl]-3-hydroxy-2-methyl-propanamide] was 7.73.

Take `C[C@H]1CC[C@H](c2ccccc2)S(=O)(=O)N1Cc1cc(F)c(C2(OCC(N)=O)CC3(COC3)C2)cc1F` [Compound 12, 2-[[6-[2,5-difluoro-4-[[(3S,6R)-3-methyl-1,1-dioxo-6-phenyl-thiazinan-2-yl]methyl]phenyl]-2-oxaspiro[3.3]heptan-6-yl]oxy]acetamide]: the pIC50 is 8.64. The compound `CNC(=O)COC1(c2cc(F)c(CN3[C@@H](C)CC[C@H](c4ccccc4)S3(=O)=O)cc2F)CC2(COC2)C1` [Compound 13, 2-[[6-[2,5-difluoro-4-[[(3S,6R)-3-methyl-1,1-dioxo-6-phenyl-thiazinan-2-yl]methyl]phenyl]-2-oxaspiro[3.3]heptan-6-yl]oxy]-N-methyl-acetamide] gave a pIC50 of 8.68.

On to `C=CCOC1(c2cc(F)c(CN3[C@@H](C)CC[C@H](c4ccccc4)S3(=O)=O)cc2F)CC2(COC2)C1` [Compound 14, (3S,6R)-2-[[4-(6-allyloxy-2-oxaspiro[3.3]heptan-6-yl)-2,5-difluoro-phenyl]methyl]-3-methyl-6-phenyl-thiazinane 1,1-dioxide], for which the pIC50 was 8.66. The pIC50 values of the last two compounds are within 0.2 log units of each other. The value for `C[C@H]1CC[C@H](c2ccccc2)S(=O)(=O)N1Cc1cc(F)c(C2=CC(=O)C2)cc1F` [Compound 15, 3-[2,5-difluoro-4-[[(3S,6R)-3-methyl-1,1-dioxo-6-phenyl-thiazinan-2-yl]methyl]phenyl]cyclobut-2-en-1-one] was 8.19; that for `C[C@H]1CC[C@H](c2ccccc2)S(=O)(=O)N1Cc1cc(F)c([C@H](CCC#N)C(N)=O)cc1F` [Compound 16, (2S)-4-cyano-2-[2,5-difluoro-4-[[(3S,6R)-3-methyl-1,1-dioxo-6-phenyl-thiazinan-2-yl]methyl]phenyl]butanamide] was 7.25; that for `C[C@H]1CC[C@H](c2ccccc2)S(=O)(=O)N1Cc1cc(F)c([C@@H](CCC#N)C(N)=O)cc1F` [Compound 17, (2R)-4-cyano-2-[2,5-difluoro-4-[[(3S,6R)-3-methyl-1,1-dioxo-6-phenyl-thiazinan-2-yl]methyl]phenyl]butanamide] was 7.08. The compound `C[C@H]1CC[C@H](c2ccccc2)S(=O)(=O)N1Cc1cc(F)c([C@@H](OCC2CC2)C(N)=O)cc1F` [Compound 18, (2R)-2-(cyclopropylmethoxy)-2-[2,5-difluoro-4-[[(3S,6R)-3-methyl-1,1-dioxo-6-phenyl-thiazinan-2-yl]methyl]phenyl]acetamide] gave a pIC50 of 7.52. This pIC50 is 0.44 log units higher than that of the compound before.
